≈ marks a conversion by molar mass, not a printed value. Some results are limits rather than exact numbers.

Series [1] is described as follows: Oral bioavailability in Han Wistar rat at 1.46 micromol/kg by LC-MS/MS analysis. In kind it is ADME, organism-based. The note with it: in vivo, 1.46 µmol/kg.
The nature of series [2]: Half-life in Han Wistar rat at 0.73 micromol/kg, iv by LC-MS/MS analysis. In kind it is ADME, organism-based. Conditions: in vivo, dose 0.73 µmol/kg.
The target of series [3] is T1, Relaxin receptor 1 (Rattus norvegicus) (UniProt Q6R6I6).
T1 sequence (whole entry): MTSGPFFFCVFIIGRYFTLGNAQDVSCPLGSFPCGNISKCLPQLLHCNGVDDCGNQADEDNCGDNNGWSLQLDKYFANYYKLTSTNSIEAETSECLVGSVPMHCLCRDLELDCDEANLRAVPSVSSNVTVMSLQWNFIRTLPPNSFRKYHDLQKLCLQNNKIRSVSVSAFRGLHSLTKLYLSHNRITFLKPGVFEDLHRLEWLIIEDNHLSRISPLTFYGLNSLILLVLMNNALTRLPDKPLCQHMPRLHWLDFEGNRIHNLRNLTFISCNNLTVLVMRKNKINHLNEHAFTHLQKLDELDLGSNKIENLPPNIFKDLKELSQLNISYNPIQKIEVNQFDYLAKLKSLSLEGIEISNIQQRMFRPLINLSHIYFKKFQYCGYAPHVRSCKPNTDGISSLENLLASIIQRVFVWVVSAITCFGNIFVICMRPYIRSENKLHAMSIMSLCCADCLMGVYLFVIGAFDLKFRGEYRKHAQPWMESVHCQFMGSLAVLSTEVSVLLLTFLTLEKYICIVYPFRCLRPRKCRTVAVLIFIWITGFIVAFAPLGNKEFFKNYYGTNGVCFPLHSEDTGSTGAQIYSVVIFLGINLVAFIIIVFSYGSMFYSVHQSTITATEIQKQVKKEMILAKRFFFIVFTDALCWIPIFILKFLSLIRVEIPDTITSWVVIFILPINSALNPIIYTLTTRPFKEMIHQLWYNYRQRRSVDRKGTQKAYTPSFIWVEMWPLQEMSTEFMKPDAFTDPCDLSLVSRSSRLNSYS
Nature of the series: Agonist activity at rat RXFP1 expressed in T-Rex-CHO-K1 cells assessed as stimulation of cAMP production by measuring maximal efficacy incubated for 60 mins by HTRF assay relative to control. In kind it is functional, cell-based. The note with it: filed as agonist.

Series [4] addresses Sodium channel protein type 5 subunit alpha (Homo sapiens, UniProt Q14524). The series can be described thus: Inhibition of human Nav1.5 by automated electrophysiology recording. Type of series: toxicity.
Series [5] addresses T2, Leucine-rich repeat-containing G-protein coupled receptor 4 (Homo sapiens, UniProt Q9BXB1).
T2 sequence (Q9BXB1 whole entry): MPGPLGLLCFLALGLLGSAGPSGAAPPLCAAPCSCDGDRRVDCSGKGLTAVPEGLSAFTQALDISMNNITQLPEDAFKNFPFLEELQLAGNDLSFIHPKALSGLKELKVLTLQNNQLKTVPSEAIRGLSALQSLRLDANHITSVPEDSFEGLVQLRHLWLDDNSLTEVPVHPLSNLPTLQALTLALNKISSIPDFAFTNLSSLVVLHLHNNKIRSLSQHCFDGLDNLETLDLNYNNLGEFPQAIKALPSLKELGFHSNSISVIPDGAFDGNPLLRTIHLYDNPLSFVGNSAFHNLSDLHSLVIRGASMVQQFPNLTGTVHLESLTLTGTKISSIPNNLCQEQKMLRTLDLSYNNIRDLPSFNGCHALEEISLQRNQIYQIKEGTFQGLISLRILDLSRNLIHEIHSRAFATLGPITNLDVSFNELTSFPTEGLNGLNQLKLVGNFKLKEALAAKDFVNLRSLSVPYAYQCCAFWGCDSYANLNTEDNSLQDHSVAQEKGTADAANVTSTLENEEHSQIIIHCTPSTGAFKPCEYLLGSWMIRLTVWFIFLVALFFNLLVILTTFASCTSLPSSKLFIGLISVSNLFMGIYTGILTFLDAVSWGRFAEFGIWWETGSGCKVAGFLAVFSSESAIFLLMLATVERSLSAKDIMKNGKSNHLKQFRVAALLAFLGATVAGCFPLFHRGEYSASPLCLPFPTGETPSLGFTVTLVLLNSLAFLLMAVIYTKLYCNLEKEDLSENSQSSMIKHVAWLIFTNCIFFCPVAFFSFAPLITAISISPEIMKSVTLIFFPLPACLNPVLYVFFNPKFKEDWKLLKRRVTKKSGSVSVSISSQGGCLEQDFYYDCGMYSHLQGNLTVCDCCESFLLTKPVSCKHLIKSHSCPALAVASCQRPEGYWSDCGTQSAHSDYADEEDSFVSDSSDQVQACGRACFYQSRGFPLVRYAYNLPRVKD
Nature of the series: Agonist activity at LGR4 (unknown origin) by arrestin technology based assay.

The target of series [6] is T3, Relaxin receptor 1 (Homo sapiens, UniProt Q9HBX9).
T3 sequence (Q9HBX9 whole entry): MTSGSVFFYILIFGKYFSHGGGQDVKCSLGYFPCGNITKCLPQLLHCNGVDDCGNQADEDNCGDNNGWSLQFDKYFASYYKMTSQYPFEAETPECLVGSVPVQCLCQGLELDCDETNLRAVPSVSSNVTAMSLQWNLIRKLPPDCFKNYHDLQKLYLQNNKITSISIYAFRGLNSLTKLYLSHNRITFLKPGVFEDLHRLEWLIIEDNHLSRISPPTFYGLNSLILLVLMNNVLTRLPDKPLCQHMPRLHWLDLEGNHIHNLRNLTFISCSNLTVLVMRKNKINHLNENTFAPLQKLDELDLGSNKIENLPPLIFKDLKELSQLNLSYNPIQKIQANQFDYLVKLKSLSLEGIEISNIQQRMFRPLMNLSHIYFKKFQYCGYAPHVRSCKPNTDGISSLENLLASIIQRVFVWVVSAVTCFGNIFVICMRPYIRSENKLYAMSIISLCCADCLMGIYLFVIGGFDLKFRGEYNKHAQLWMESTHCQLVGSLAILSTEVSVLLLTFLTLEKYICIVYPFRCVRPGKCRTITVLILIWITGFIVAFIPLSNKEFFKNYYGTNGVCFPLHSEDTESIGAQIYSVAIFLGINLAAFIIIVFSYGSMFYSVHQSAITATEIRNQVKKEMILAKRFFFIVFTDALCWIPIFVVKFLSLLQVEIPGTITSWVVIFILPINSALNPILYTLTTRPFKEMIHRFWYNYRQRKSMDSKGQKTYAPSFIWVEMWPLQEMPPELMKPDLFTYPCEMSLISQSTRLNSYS
Nature of the series: Agonist activity at human RXFP1 expressed in T-Rex-CHO-K1 cells assessed as stimulation of cAMP production by measuring unbound concentration incubated for 45 mins by HTRF assay. Background: cAMP levels reflect the balance of adenylyl cyclase and phosphodiesterase activity.

Series [7] is described as follows: Metabolic stability in cryopreserved human hepatocytes assessed as intrinsic clearance measured per 10^6 cells at 1 uM after 120 mins by LC-MS/MS analysis. Conditions: hepatocytes, 2 h, 1 µM. Type of series: ADME, cell-based, Hepatocyte.
In series [8] the target is T1, Relaxin receptor 1 (Rattus norvegicus). Nature of the series: Agonist activity at rat RXFP1 expressed in T-Rex-CHO-K1 cells assessed as stimulation of cAMP production by measuring unbound concentration incubated for 60 mins by HTRF assay. Type of series: functional, cell-based. Conditions: filed as agonist.
Series [9] is described as follows: Solubility of compound in phosphate buffer at pH 6.5. Type of series: physicochemical.

Chain of Sodium channel protein type 5 subunit alpha (Q14524 whole entry): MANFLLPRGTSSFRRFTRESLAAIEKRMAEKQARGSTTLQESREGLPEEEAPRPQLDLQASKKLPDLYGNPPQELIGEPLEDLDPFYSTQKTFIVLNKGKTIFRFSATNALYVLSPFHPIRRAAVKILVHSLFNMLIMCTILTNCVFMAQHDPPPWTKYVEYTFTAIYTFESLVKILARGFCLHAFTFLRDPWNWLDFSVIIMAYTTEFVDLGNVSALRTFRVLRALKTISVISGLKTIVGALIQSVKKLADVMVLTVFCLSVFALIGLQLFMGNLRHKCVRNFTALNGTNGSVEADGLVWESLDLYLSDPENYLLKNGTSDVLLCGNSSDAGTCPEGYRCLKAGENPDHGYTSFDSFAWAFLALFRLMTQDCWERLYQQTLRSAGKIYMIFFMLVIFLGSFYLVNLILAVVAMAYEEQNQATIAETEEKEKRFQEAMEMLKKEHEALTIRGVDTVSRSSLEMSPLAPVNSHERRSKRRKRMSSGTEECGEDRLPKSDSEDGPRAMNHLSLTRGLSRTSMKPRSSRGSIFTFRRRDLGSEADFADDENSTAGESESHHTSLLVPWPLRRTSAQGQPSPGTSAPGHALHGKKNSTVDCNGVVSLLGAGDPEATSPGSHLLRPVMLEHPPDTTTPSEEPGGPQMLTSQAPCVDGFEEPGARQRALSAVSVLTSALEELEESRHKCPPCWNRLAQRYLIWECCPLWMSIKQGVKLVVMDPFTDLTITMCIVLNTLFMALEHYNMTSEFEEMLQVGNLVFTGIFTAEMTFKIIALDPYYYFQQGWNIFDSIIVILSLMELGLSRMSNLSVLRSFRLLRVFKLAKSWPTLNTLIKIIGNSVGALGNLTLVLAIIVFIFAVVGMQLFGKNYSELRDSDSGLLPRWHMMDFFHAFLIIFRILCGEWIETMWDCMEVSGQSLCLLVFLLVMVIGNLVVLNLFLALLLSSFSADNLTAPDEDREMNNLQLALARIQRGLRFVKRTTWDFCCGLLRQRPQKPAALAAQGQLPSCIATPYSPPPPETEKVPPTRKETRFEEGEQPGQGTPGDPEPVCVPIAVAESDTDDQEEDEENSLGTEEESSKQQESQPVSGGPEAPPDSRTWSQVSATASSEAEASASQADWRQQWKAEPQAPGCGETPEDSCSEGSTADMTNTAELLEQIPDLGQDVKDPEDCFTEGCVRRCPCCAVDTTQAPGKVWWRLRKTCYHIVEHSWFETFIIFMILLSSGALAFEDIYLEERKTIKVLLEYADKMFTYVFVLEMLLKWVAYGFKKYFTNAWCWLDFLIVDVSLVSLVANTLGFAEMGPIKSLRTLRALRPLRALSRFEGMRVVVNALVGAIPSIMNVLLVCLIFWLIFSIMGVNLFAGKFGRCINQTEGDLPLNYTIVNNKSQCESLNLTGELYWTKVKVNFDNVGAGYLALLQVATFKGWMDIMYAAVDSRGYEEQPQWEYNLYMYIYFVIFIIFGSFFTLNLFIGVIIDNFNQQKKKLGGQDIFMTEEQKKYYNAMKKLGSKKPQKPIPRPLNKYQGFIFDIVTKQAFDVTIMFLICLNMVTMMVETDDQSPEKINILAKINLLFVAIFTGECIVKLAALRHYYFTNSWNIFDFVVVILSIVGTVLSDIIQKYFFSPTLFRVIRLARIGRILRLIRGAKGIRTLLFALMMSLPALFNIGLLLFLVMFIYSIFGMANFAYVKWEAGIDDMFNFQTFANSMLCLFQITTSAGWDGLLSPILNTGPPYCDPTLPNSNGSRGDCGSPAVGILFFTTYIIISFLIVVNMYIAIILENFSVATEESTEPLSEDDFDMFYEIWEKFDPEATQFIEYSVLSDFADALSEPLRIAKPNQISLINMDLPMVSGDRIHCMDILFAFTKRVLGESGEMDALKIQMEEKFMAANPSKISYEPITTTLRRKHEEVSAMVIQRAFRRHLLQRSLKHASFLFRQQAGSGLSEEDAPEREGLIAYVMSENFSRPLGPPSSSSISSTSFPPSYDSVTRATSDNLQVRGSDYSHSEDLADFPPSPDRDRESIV

Regarding `COc1cc(F)c(O[C@H]2CC[C@@](C)(C(=O)O)CC2)cc1C(=O)N[C@@H]1[C@H]2CC[C@H](C2)[C@@H]1C(=O)Nc1ccc(F)c(S(F)(F)(F)(F)F)c1`, the bioavailability in series [1] stood at 11%. The molecule also had a half-life in series [2] of 2.9 h. Further, the maximum response (Emax) in series [3] stood at 139%. Further, the IC50 in series [4] was found to be 21 µM. Also, the results for the EC50 in [5] and in [6] were 16 µM and less than 0.0316 nM, respectively. For the same molecule, the CLH in [7] is 21 µL/min/1e6 cells. For the same molecule, the fEC50 in series [8] was 17 nM. The molecule also came in with a solubility in series [9] of 0.13 µM (≈ 0.0887 µg/mL).

What is called bioavailability is the share of a dose that reaches the circulation, judged against a reference dose that is usually intravenous. Lower therefore signals little systemic uptake. For orientation: half-life means the time needed for the level to fall by half in the phase considered. A word on the Emax: it is the size of the effect at its maximum, as opposed to the concentration needed. One may read the IC50 as the concentration that gives 50% inhibition. Higher therefore signals lower potency. By EC50 is commonly meant the concentration at which the effect is half-maximal. Usually solubility stands for the concentration that dissolves in the medium under given conditions. A low value points to a poorly soluble substance.

Values taken from ChEMBL document CHEMBL5518235, “Identification of Novel Series of Potent and Selective Relaxin Family Peptide Receptor 1 (RXFP1) Agonists” (J Med Chem, 2024).
